Holding throughout (type): cell-based, human
The subject of assay [1] is TAP1 serum (Taiwan Miltenberger antibody positive sample). Put plainly: Anti-MUT serum (TAP1) reactivity of modified RBCs (saline and AHG). More on the design: key: 0 or ‘−’ no agglutination; 0 or ‘−’ no agglutination; 1+ or 3=very weak agglutination; 1+ or 3=very weak agglutination; 2+ or 5=weak agglutination; 2+ or 5=weak agglutination; 3+ or 8=moderate strong agglutination; 3+ or 8=moderate strong agglutination; 4+ or 10/12=strong agglutination; 4+ or 10/12=strong agglutination; 4+ or 10/12=strong agglutination. The following applies: construct 50 μg/ml (2 hours, 37° C.). On the procedure: (§1) The suspensions are either: • 1. incubated for 2 hours at 37° C. before being washed and suspended in a cell medium for serological analysis at a concentration of 0.8 to 3% (Method 1); or • 2. incubated for 3 to 4 hours at room temperature (circa 25° C.) followed by 18 hours at 4° C. before being washed and suspended in a cell medium for serological analysis at a concentration of 0.8 to 3% (Method 2).
(§2) Serological reactions are graded or scored by either of two established systems (0 or ‘−’ no agglutination, 1+ or 3=very weak agglutination, 2+ or 5=weak agglutination, 3+ or 8=moderate strong agglutination, 4+ or 10/12=strong agglutination)

Assay [2] concerns Miltenberger antibody positive sera. Put plainly: BioVue AHG card column agglutination serology of modified red blood cells. More on the design: key: 0 or ‘−’ no agglutination; 0 or ‘−’ no agglutination; 1+ or 3=very weak agglutination; 1+ or 3=very weak agglutination; 2+ or 5=weak agglutination; 2+ or 5=weak agglutination; 3+ or 8=moderate strong agglutination; 3+ or 8=moderate strong agglutination; 4+ or 10/12=strong agglutination; 4+ or 10/12=strong agglutination; 4+ or 10/12=strong agglutination. The settings on record: construct 50 μg/ml. The protocol:
Red blood cells are modified by mixing 1 part by volume of washed packed red blood cells with 1 part by volume of peptide-lipid construct dispersed at a concentration of 10 to 1000 pg/ml in cell media (Celpresol™).
as §1, §2
Serological platforms used are Tube (addition of reagents and reactants into plastic or glass serology tubes and after appropriate incubations, washing and centrifugation observing reactions macroscopically by eye and a 10× magnification eyepiece and scoring) and BioVue™ (addition of reactants into cassettes containing beads (including some reactants) and after appropriate incubations and centrifugation observing the reaction patterns trapped within the Gel matrix). BioVue is the serological column agglutination platform of Ortho-Clinical Diagnostics. Diamed is the serological column agglutination platform of Diamed AG.

In assay [3] the test system is Miltenberger Antibody Positive Panel. Put plainly: Reactivity of modified RBCs against the Miltenberger Antibody Positive Panel. Further details: key to score vs panel 15 TAP2 / score vs panel 4 T7202 / score vs panel 8 T5896 / score vs panel 2 T217 / score vs panel 3 T165 / score vs panel 14 TAP1 / score vs panel 10 Mia / score vs panel 11 Mur / score vs panel 12 Gam / score vs panel 6 T6025 / score vs panel 7 T8445 / score vs panel 9 MIII / score vs panel 13 BoxH / reactivity with Panel Serum #7 (T8445) / agglutination score, Panel Serum #7 (T8445): 0 or ‘−’ no agglutination; 0 or ‘−’ no agglutination; 1+ or 3=very weak agglutination; 1+ or 3=very weak agglutination; 2+ or 5=weak agglutination; 2+ or 5=weak agglutination; 3+ or 8=moderate strong agglutination; 3+ or 8=moderate strong agglutination; 4+ or 10/12=strong agglutination; 4+ or 10/12=strong agglutination; 4+ or 10/12=strong agglutination. The settings on record: Table 8; construct 50 μg/ml.

No end group written: not given here.

Consider “M35: DOPE peptide-lipid construct: MUTK peptide QTNDKHKRDT, leader c, spacer CMG(2) (QTNDKHKRDTC; also: DOPE peptide-lipid construct via leader Cys, spacer CMG(2))”, for which the “Reactivity with anti-MUT serum TAP1” value in assay [1] turned out to be 5. Moreover, in assay [2], the “BioVue score vs TAP1” value is 5, the “BioVue score vs positive sample 2 T217 (T)” value stood at 0, the “BioVue score vs positive sample 3 T165 (Mur)” value amounted to 0 and the “BioVue score vs positive sample 4 T7202 (M)” value turned out to be 0. In addition, in assay [2], the “BioVue score vs positive sample 8 T5896 (M + K + Mur)” value was determined as 0. In assay [3], the “score vs panel 2 T217” value was found to be 0, the “score vs panel 3 T165” value was determined as 0, the “score vs panel 4 T7202” value amounted to 0 and the “score vs panel 8 T5896” value came to 0. In assay [3], the “score vs panel 14 TAP1” value was determined as 5 and the “score vs panel 15 TAP2” value turned out to be 0.

The values above are taken from patent US10919941B2, “Functional lipid constructs” (KODE BIOTECH LIMITED, priority 2007, dated 2021).
